According to patent publication US20220160669A1, “PARENTERAL NUTRITION FORMULATION” (BAXTER INTERNATIONAL INC., priority 2020, published 2022):

How the values were obtained:
Type in all cases: in vivo, pig
Il-10 = assay: Serum cytokine quantification, Il-10; conditions: 10 mmol/L TPN (Groups A, C, D)
Text: (§1) Neonatal Yorkshire/Landrace cross bred piglets (n=72; six at a time from the same litter, repeating 12 times) were obtained from Oak Hill Genetics (Ewing, Ill.) after 48-hour sow reared for colostrum consumption and iron supplementation.
(§2) The influence of the respective supplements on inflammation was investigated by determining Il-6, Il-1beta, TNF-alpha and Il-10 serum levels in the intervention groups compared to EN and PN according to Milo et al., Effects of Short-Chain Fatty Acid-Supplemented Total Parenteral Nutrition on Intestinal Pro-Inflammatory Cytokine Abundance. Digestive Diseases and Sciences 2002; 47:2049-2055. Jejunal and ileal samples were homogenized in double-distilled water, and the Bradford protein assay (Biorad, Hercules, Calif., USA) was performed on homogenate and plasma samples. Protein (30 μg) from each sample was denatured by boiling, and proteins were separated by size using 12.5% sodium dodecyl sulfate polyacrylamide gel electrophoresis. Separated proteins were transferred to polyvinylidene difluoride membranes (Biorad) using a semidry transfer apparatus (Biorad). Western blot analysis for TNF-alpha, IL-1beta, Il-10 and IL-6 was performed using porcine-specific polyclonal antibodies (Endogen, Woburn, Mass., USA). A mouse anti-pig monoclonal TNF-alpha antibody was used to detect TNF-alpha ([…]). Rabbit anti-pig polyclonal antibodies specific for IL-1beta and IL-6 were used to detect IL-1beta (17,500 kDa), Il-10 (18,600 kDa) and IL-6 (26,000 kDa). Membranes were developed using the Opti-4CN kit (Biorad) and photographed using the FOTO/Analyst Image Analysis System (Fotodyne, Inc., Hartland, Wis., USA). Densitometry of TNF-alpha, IL-1beta, IL-6, and Il-10 was performed using Collage Image Analysis Software 4.0 (Fotodyne, Inc.). Results are shown in FIG. 15 (Il-6), FIG. 16 (Illbeta), FIG. 17 (TNF-alpha) and FIG. 18 (Il-10).

[1] = system: Neonatal Yorkshire/Landrace cross bred piglets; assay: Intestinal histomorphology: villus height and crypt depth; set-up: key to Villus (total) / Crypt (total): + denotes a positive effect (compared to standard PN); ++ a very positive effect; − denotes no difference
Protocol: as §1
Formalin-fixed intestinal samples were embedded in paraffin, sliced to approximately 5-μm thickness with a microtome and stained with hematoxylin and eosin (FIG. 6). Villus height, midvillus width, and crypt depth were measured by using a Nikon Optiphot-2 microscope (Nikon, Melville, N.Y.) and ImagePro Express software (Version 4.5; Media Cybernetics, Inc, Silver Spring, Md.) in 8 to 10 well-oriented villi and crypts. Villus surface area (villus height×midvillus width) was also calculated. In addition, intestinal segment circumference was measured to estimate intestinal surface area. The results are provided in FIGS. 7 through 12 (see there for details). […] The Table summarizes the average difference (in % of each Intervention Group (A, B, C, D) versus the PN Group) of the villus height and the crypt depth in the different sections of the gut, i.e. duodenum, jejunum, ileum and colon. The Intervention Groups show an improved villus height compared to the s-PN Group.

sIgA = assay: IgA quantification (jejunal sIgA, ELISA); set-up: key to IgA: + denotes a positive effect (compared to standard PN); ++ a very positive effect; − denotes no difference; conditions: 10 mmol/L in PN, compared to standard PN
Text: as §1
Small intestine probes for IgA level determination were obtained by flushing the small intestine with chilled HBSS (Hank's Balanced Salt Solution). Nasal and bronchoalveolar washings for measurement of respiratory tract IgA levels were obtained by lavage with 1 mL phosphate-buffered saline solution under anesthesia. The washings were stored in a −80° C. freezer until IgA analysis. IgA was measured in small intestinal and respiratory tract washings by sandwich enzyme-linked immunosorbent assay using a polyclonal goat anti-mouse IgA (Sigma) to coat the plate, a purified mouse IgA (Zymed Laboratories, San Francisco, Calif.) as the standard, and a horseradish peroxidase-conjugated goat anti-mouse IgA (Sigma).

[2] = system: Pro-inflammatory cytokines; assay: Pro-inflammatory cytokines, summary (site not stated); set-up: key: + denotes a positive effect (compared to standard PN); ++ a very positive effect; − denotes no difference; conditions: 10 mmol/L in PN, compared to standard PN
Text: as §1, §2

[3] = system: Neonatal Yorkshire/Landrace cross bred piglets; assay: Cognitive assessment by eyeblink conditioning; set-up: key: + denotes a positive effect (compared to standard PN); ++ a very positive effect; − denotes no difference; conditions: 10 mmol/L in PN, compared to standard PN
Text: Eyeblink conditioning is an established Pavlovian method to assess the cerebellum and associated brainstem circuitry with hippocampus involvement that are essential for learning and memory. The eyeblink conditioning procedure took place in a sound-attenuating chamber. A fan was inside the chamber and ran throughout the experiment for ambient noise (70 dB). A speaker mounted to the wall of the chamber delivered the tone conditioned stimulus (CS). A small plastic air puff delivery nozzle (San Diego Instruments, San Diego, Calif.) was secured at approximately 2 cm from the piglet's left eye to deliver the unconditioned stimulus (US). After adaptation to the conditioning apparatus on study day 3, a total of five CS-US conditioning sessions occurred on study days 4-8 following. Each conditioning session consisted of 90 CS-US paired trials and 10 CS alone trials for a total of 100 trials/session. Every tenth trial was a CS alone trial. The CS-US paired trials included: a 500 ms auditory CS (1 kHz, 85 dB tone), a 400 ms interstimulus interval (ISI), followed by a 100 ms corneal airpuff US (10 psi). Both the CS and US were co-terminated at the exact same time. The CS alone trials consisted of a 500 ms auditory CS (1 kHz, 85 dB tone) only. There were random inter-trial intervals of 20 seconds throughout each session. Each conditioning session lasted no longer than 35 minutes. The San Diego Instruments eyeblink software was used to record conditioning session moment-to-moment infrared-reflectance data.

[4] = 10 mmol/L TPN (Groups A, C, D), sum over sections
[5] = 10 mmol/L in PN, all sections, compared to standard PN

CCCCCCCCCCCCCCCC(=O)OCC(COC(=O)CCC)OC(=O)CCCCCCCCCCCCCCC (stereo not drawn) [1,2-Dipalmitoyl 3-butyryl glycerol]
serum levels of Il-10 (FIG. 18) (Il-10): almost or about as low | average duodenal crypt length (crypt depth, FIG. 8) ([1]; 10 mmol/L TPN): gave the best results | average duodenal villous length (FIG. 7) ([1]; 10 mmol/L TPN): increased villous length compared to the other study groups | average ileal crypt depth (FIG. 11) ([1]; 10 mmol/L TPN): significant difference | average jejunal crypt depth (FIG. 10) ([1]; 10 mmol/L TPN): lower | average jejunal villous length (FIG. 9) ([1]; 10 mmol/L TPN): relatively good results | % Δ from PN, Colon C (crypt depth) ([1]; 10 mmol/L TPN (Groups A, C, D)): +12% | % Δ from PN, Duodenum C (crypt depth) ([1]; 10 mmol/L TPN (Groups A, C, D)): +19% | % Δ from PN, Duodenum V (villus height) ([1]; 10 mmol/L TPN (Groups A, C, D)): +31% | % Δ from PN, Ileum C (crypt depth) ([1]; 10 mmol/L TPN (Groups A, C, D)): +15% | % Δ from PN, Ileum V (villus height) ([1]; 10 mmol/L TPN (Groups A, C, D)): +24% | % Δ from PN, Jejunum C (crypt depth) ([1]; 10 mmol/L TPN (Groups A, C, D)): +2% | % Δ from PN, Jejunum V (villus height) ([1]; 10 mmol/L TPN (Groups A, C, D)): +5% | % Δ from PN, Total Total (crypt + villus) ([1]; 10 mmol/L TPN (Groups A, C, D)): +110% | % Δ from PN, Total C (crypt depth) [1, 4]: +50% | % Δ from PN, Total V (villus height) [1, 4]: +60% | Crypt (total) [1, 5]: + | Villus (total) [1, 5]: + | IgA (sIgA): ++ | Pro-inflammatory cytokines [2]: + | Cognitive [3]: −
